Measured values taken from publication PMC7555312, “Functional Characterization of Temporin-SHe, a New Broad-Spectrum Antibacterial and Leishmanicidal Temporin-SH Paralog from the Sahara Frog (Pelophylax saharicus)” (International Journal of Molecular Sciences, 2020).
Where no end group is shown, it is not given here.

Key:
[1] = tested on: L. infantum promastigotes (strain MHOM/MA/67/ITMAP-263); format: cell-based, Leishmania infantum; conditions: 72 h, 26 °C
Method: (§1) Antileishmanial activity of temporin-SHe was analyzed by a luminescence-based growth inhibition method using Leishmania promastigotes transfected with the vector pGMαNEOαLUC containing the gene LUC that codes for the firefly luciferase, cultured at 26 °C in SDM-79 medium supplemented with 10% fetal calf serum (Gibco), as previously described. Mid-log-phase promastigotes (1.25 × 10^6 cells/mL) were added in 96-well plates containing different concentrations of synthetic temporin-SHe (3.125–50 µM, final concentrations), and incubated 72 h at 26 °C. […] IC50 was determined with GraphPad Prism® 6.0 software (GraphPad Software, La Jolla, CA, USA) using a sigmoidal dose–response curve fitting equation.

E. coli strains = format: cell-based, Escherichia coli
Method: (§2) Antifungal activity was evaluated against C. albicans (ATCC 90028), C. parapsilosis (ATCC 22019) and S. cerevisiae.
(§3) Antimicrobial activity was assessed with a liquid growth inhibition assay performed according to a previously described protocol [14] using the Clinical and Laboratory Standards Institute (CLSI) guidelines. Briefly, in 96-well microtitration plates, mid-log-phase bacteria diluted to 10^6 CFU/mL in Mueller–Hinton (MH) broth were added to different concentrations of synthetic temporin-SHe (1–200 µM, final concentrations) and incubated at 37 °C for 18–20 h, under shaking (150 rpm). For E. faecalis, L. ivanovii and yeasts/fungi, 10^6 CFU/mL suspensions were prepared in LB broth, brain heart infusion (BHI) medium and Yeast Peptone Dextrose (YPD) medium, respectively, and incubation was performed at 30 °C for yeasts/fungi. […] MIC values represent the average of three independent experiments, each performed in triplicate with negative (no peptide) and positive (formaldehyde 0.7%) controls.

human THP-1 monocytes = assay: Cytotoxicity, MTT assay; conditions: THP-1, 72 h, 37 °C, calculated mean from dose–response curves
Method: Hemolytic activity of temporin-SHe was determined against human red blood cells (RBCs), as described in [13]. After incubating the peptide (1–200 µM, final concentrations) with RBCs (2 × 10^7 cells) in 100 µL PBS for 1 h at 37 °C, centrifugation was completed (12,000× g, 15 s) and the absorbance of the supernatant was measured at 450 nm. RBCs suspended in PBS or 0.1% (v/v) Triton X-100 yielded an absorbance associated with 0% and 100% hemolysis, respectively. The percentage of hemolysis was calculated as follow: Hemolysis (%) = [A450 (RBCs with peptide)–A450 (RBCs in PBS)]/[A450 (RBCs with Triton X-100)–A450 (RBCs in PBS)]. Cytotoxicity of temporin-SHe was also assessed on human leukemia monocyte cell line THP-1. Briefly, monocytes (6.25 × 10^5 cells/mL) were incubated with different peptide concentrations (3–50 µM, final concentrations) for 72 h at 37 °C, then cell viability was determined by the MTT assay according to a previously described protocol. Results were expressed as the mean of two independent experiments performed in triplicate.

C. albicans ATCC 90028 = format: cell-based, Candida albicans
Method: as §2, §3

[2] = tested on: L. braziliensis promastigotes (strain MHOM/BR/75/M2904); format: cell-based, Leishmania braziliensis; conditions: 72 h, 26 °C
Method: as §1

S. cerevisiae = format: cell-based, Saccharomyces cerevisiae
Method: as §2, §3

B. megaterium = format: cell-based, Bacillus megaterium
Method: as §2, §3

E. coli ATCC 25922 = format: cell-based, Escherichia coli
Method: as §2, §3

E. coli ATCC 35218 = format: cell-based, Escherichia coli
Method: as §2, §3

E. faecalis ATCC 29212 = format: cell-based, Enterococcus faecalis
Method: as §2, §3

S. aureus ST1065 [3] = assay: Membrane permeabilization assay (ONPG hydrolysis); format: cell-based, Staphylococcus aureus; conditions: increasing peptide concentrations, 2.5 mM ONPG in PBS, 37 °C
Method: The ability of temporin-SHe to permeabilize bacterial cytoplasmic membrane was determined using the Gram-negative strain E. coli ML-35p and the Gram-positive strain S. aureus ST1065, as described. Briefly, after incubation of bacteria (37 °C) in 96-well plates with PBS containing 2.5 mM o-nitrophenyl-β-D-galactopyranoside (ONPG) and different concentrations of temporin-SHe, the production of o-nitrophenol (ONP) resulting from hydrolysis of ONPG by intracytoplasmic β-galactosidase was monitored at 405 nm according to the time (Fluostar Galaxy plate reader, BMG Labtech, Champigny-sur-Marne, France). Wells containing bacteria and ONPG, with no peptide, were used as negative control. Two independent experiments were performed in triplicate. Results are from a representative experiment and were expressed as the mean ± S.D.

S. aureus ST1065 [4] = format: cell-based, Staphylococcus aureus
[5] = tested on: L. major promastigotes (strain MHOM/SU/73/5-ASKH); format: cell-based, Leishmania major; conditions: 72 h, 26 °C
Method: as §1

[6] = luciferase-expressing promastigotes 1.25 × 10^6 cells/mL, Steady-Glo, mean of three independent experiments in triplicate
[7] = peptide 12.5 µM, promastigotes, mean of three independent assays in triplicates

FLPALAGIAGLLGKIF-NH2 [Temporin-SHe]
IC50 [1, 6]: 4.6 µM | inhibition of L. infantum growth ([1]; peptide 3.12 µM, promastigotes, mean of three independent assays in triplicates): 42% | MIC range (E. coli strains): 25 to 50 µM | LC50 (lethal concentration 50) (human THP-1 monocytes): 11.4 µM | MIC (C. albicans ATCC 90028): >100 µM | IC50 [2, 6]: 10.5 µM | Leishmania growth inhibition (L. braziliensis) [2, 7]: 87% | MIC (S. cerevisiae): 12.5 µM | MIC (B. megaterium): 1.56 µM | MIC (E. coli ATCC 25922): 25 µM | MIC (E. coli ATCC 35218): 50 µM | MIC (E. faecalis ATCC 29212): 12.5 µM | cytoplasmic membrane permeabilization (ONP production, A405) (S. aureus ST1065 [3]): time- and concentration-dependent manner | MIC (S. aureus ST1065 [4]): 3.12 µM | IC50 [5, 6]: 11.6 µM | Leishmania growth inhibition (L. major) [5, 7]: 85%
